Drawing on the Kinase Knowledgebase extract (Sharma et al. 2016), this text covers IC50 and inhibition for 81 compounds.

For one assay, the target named is MAPK14 (human) (UniProt Q16539). The assay can be described thus: Inhibition of LPS Stimulated TNF Production by U937 Cells.
Chain of MAPK14 (human) (Q16539 whole entry, looked up): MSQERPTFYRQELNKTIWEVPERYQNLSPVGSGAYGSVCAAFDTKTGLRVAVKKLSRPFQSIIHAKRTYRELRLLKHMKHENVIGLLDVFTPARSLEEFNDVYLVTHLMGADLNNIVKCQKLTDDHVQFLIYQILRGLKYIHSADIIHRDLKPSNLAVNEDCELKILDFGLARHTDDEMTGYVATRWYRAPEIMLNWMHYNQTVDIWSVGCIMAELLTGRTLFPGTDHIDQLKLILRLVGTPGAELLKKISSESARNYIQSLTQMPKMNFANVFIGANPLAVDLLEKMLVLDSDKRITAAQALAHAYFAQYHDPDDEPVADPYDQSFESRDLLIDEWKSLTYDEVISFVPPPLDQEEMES
Conditions: not given
As a reminder, the IC50 is the midpoint of a concentration-inhibition curve. A higher IC50 goes with a need for much substance. For `C[C@@H](NC(=O)NCCc1[nH]nc(-c2ccc(F)cc2)c1-c1ccncc1)c1ccccc1`, the IC50 came out at 5000 nM.

Compound `COc1ccc(C)cc1S(=O)(=O)NCc1[nH]nc(-c2ccc(F)cc2)c1-c1ccncc1` gave an IC50 of over 1000 nM.

Regarding `Cc1nn(C)c(-c2ccc(Cl)cc2)c1-c1ccncc1`, the IC50 came out at 2700 nM.

`c1cc(-c2c[nH]nc2-c2ccc3c(c2)OCO3)ccn1` gave an IC50 of 417 nM.

Compound `O=C(C1CC1)N1CCC(c2[nH]nc(-c3ccc(F)cc3)c2-c2ccncc2)CC1` yielded an IC50 of 270 nM.

Compound `COc1ccc(CC(=O)N[C@H](Cc2ccccc2)c2[nH]nc(-c3ccc(F)cc3)c2-c2ccncc2)cc1` displayed an IC50 of over 1000 nM.

For `Fc1cc(-c2c[nH]nc2-c2ccc(F)c(F)c2)ccn1`, the IC50 turned out to be 517 nM.

The compound `C[C@@H](NC(=O)c1ccccc1C(F)(F)F)c1[nH]nc(-c2ccc(F)cc2)c1-c1ccncc1` gave an IC50 of 640 nM.

`O=C(c1ccccn1)N1CCC(c2[nH]nc(-c3ccc(F)cc3)c2-c2ccncc2)CC1` displayed an IC50 of 250 nM.

Regarding `CC(Nc1cc(-c2c[nH]nc2-c2ccc(F)cc2)ccn1)c1ccc(F)cc1` (configuration not stated), the IC50 turned out to be 4.4 nM.

`Cn1cc(-c2ccncc2)c(-c2ccc(C(F)(F)F)cc2)n1` returned an IC50 of 1200 nM.

`OCCn1cc(-c2ccncc2)c(-c2ccc(F)cc2)n1` yielded an IC50 of 198 nM.

`O=[N+]([O-])c1cccc(S(=O)(=O)NCc2[nH]nc(-c3ccc(F)cc3)c2-c2ccncc2)c1` had an IC50 of 3920 nM.

The compound `CCN(CC)CCn1cc(-c2ccnc(F)c2)c(-c2ccc(F)cc2)n1` showed an IC50 of 2300 nM.

Consider `Cn1cc(-c2ccnc(F)c2)c(-c2ccc(F)c(F)c2)n1`, for which the IC50 was found to be 1280 nM.

Staying with this assay, now noted: concentration not given here.
A word on the inhibition: it is the percentage by which the read-out fell short of the control. A high value points to a response far below the control. Compound `C[C@@H](NC(=O)NCCc1[nH]nc(-c2ccc(F)cc2)c1-c1ccncc1)c1ccccc1` gave an inhibition of 25%.

Consider `Cc1ccccc1C(=O)N[C@H](C)c1[nH]nc(-c2ccc(F)cc2)c1-c1ccncc1`, for which the inhibition was found to be 42%.

For the compound `O=C(NCc1[nH]nc(-c2ccc(F)cc2)c1-c1ccncc1)c1sc2ccccc2c1Cl`, the inhibition stood at 18%.

The compound `O=S(=O)(NCCCc1[nH]nc(-c2ccc(F)cc2)c1-c1ccncc1)c1cccc(C(F)(F)F)c1` displayed an inhibition of 11%.

The compound `CCCCOc1ccc(S(=O)(=O)NCCc2[nH]nc(-c3ccc(F)cc3)c2-c2ccncc2)cc1` gave an inhibition of 29%.

In the case of `C[C@@H](NC(=O)c1ccc(I)cc1)c1[nH]nc(-c2ccc(F)cc2)c1-c1ccncc1`, the inhibition amounted to 25%.

`C[C@H](NC(=O)c1c(F)cc(F)cc1F)c1[nH]nc(-c2ccc(F)cc2)c1-c1ccncc1` showed an inhibition of 68%.

For `CNC(=O)N[C@@H](C)c1[nH]nc(-c2ccc(F)cc2)c1-c1ccncc1`, the inhibition turned out to be 79%.

`O=C(NCCCc1[nH]nc(-c2ccc(F)cc2)c1-c1ccncc1)NCCc1ccccn1` yielded an inhibition of 24%.

For the compound `Cc1c(-c2ccncc2)c(-c2ccc(F)cc2)nn1CC(=O)N[C@H](C)c1cccc2ccccc12`, the inhibition was 23%.

The compound `Cc1cccc(C)c1NC(=O)N[C@@H](C)c1[nH]nc(-c2ccc(F)cc2)c1-c1ccncc1` gave an inhibition of 42%.

As for `O=C(NCc1[nH]nc(-c2ccc(F)cc2)c1-c1ccncc1)c1cccc(C(F)(F)F)c1`, the inhibition was found to be 13%.

On to `O=S(=O)(NCCCc1[nH]nc(-c2ccc(F)cc2)c1-c1ccncc1)c1cccc(Cl)c1Cl`, for which the inhibition stood at 18%.

Compound `C[C@H](NS(=O)(=O)c1ccc(C#N)cc1)c1[nH]nc(-c2ccc(F)cc2)c1-c1ccncc1` displayed an inhibition of 95%.

On to `C[C@H](NC(=O)c1c(F)ccc(F)c1F)c1[nH]nc(-c2ccc(F)cc2)c1-c1ccncc1`, for which the inhibition is 67%.

`O=S(=O)(NCc1[nH]nc(-c2ccc(F)cc2)c1-c1ccncc1)c1c(Cl)cccc1Cl` returned an inhibition of 43%.

On to `C[C@H](NC(=O)c1ccc(C(F)(F)F)cc1)c1[nH]nc(-c2ccc(F)cc2)c1-c1ccncc1`, for which the inhibition worked out at 29%.

`O=S(=O)(c1ccccc1)N1CCC(c2[nH]nc(-c3ccc(F)cc3)c2-c2ccncc2)CC1` displayed an inhibition of 21%.

On to `CC(C)=CC(=O)N[C@@H](C)c1[nH]nc(-c2ccc(F)cc2)c1-c1ccncc1`, for which the inhibition turned out to be 21%.

`C[C@H](NS(=O)(=O)c1cccc2cccnc12)c1[nH]nc(-c2ccc(F)cc2)c1-c1ccncc1` yielded an inhibition of 58%.

In the case of `C[C@@H](NC(=O)c1ccc(Cl)cc1)c1[nH]nc(-c2ccc(F)cc2)c1-c1ccncc1`, the inhibition was found to be 36%.

The compound `O=C(NCc1[nH]nc(-c2ccc(F)cc2)c1-c1ccncc1)c1ccccc1Br` returned an inhibition of 50%.

For the compound `C[C@H](NS(=O)(=O)c1cccc(Cl)c1)c1[nH]nc(-c2ccc(F)cc2)c1-c1ccncc1`, the inhibition worked out at 93%.

`Cc1noc(C)c1S(=O)(=O)NCCCc1[nH]nc(-c2ccc(F)cc2)c1-c1ccncc1` registered an inhibition of 85%.

Turning to `CCOC(=O)c1ccc(NC(=O)NCc2[nH]nc(-c3ccc(F)cc3)c2-c2ccncc2)cc1`, the inhibition was determined as 13%.

`C[C@@H](NC(=O)N(C)C)c1[nH]nc(-c2ccc(F)cc2)c1-c1ccncc1` showed an inhibition of 27%.

Turning to `CN(C)S(=O)(=O)NCc1[nH]nc(-c2ccc(F)cc2)c1-c1ccncc1`, the inhibition was 18%.

Regarding `O=S(=O)(NCc1[nH]nc(-c2ccc(F)cc2)c1-c1ccncc1)c1cccc(Br)c1`, the inhibition was determined as 90%.

In turn, `C[C@H](NS(=O)(=O)c1ccc(F)cc1Cl)c1[nH]nc(-c2ccc(F)cc2)c1-c1ccncc1` gave an inhibition of 85%.

Compound `O=S(=O)(N[C@H](Cc1ccccc1)c1[nH]nc(-c2ccc(F)cc2)c1-c1ccncc1)c1cccs1` yielded an inhibition of 29%.

As for `Cc1ccc(S(=O)(=O)N2CCC(c3[nH]nc(-c4ccc(F)cc4)c3-c3ccncc3)CC2)cc1`, the inhibition came out at 14%.

`CCN(CC)C(=O)N[C@@H](C)c1[nH]nc(-c2ccc(F)cc2)c1-c1ccncc1` registered an inhibition of 63%.

As for `C[C@H](NC(=O)c1ccc(F)c(F)c1F)c1[nH]nc(-c2ccc(F)cc2)c1-c1ccncc1`, the inhibition came to 18%.

`C[C@H](NS(=O)(=O)c1ccccc1Cl)c1[nH]nc(-c2ccc(F)cc2)c1-c1ccncc1` had an inhibition of 94%.

In turn, `NC(=O)NCc1[nH]nc(-c2ccc(F)cc2)c1-c1ccncc1` displayed an inhibition of 50%.

In the case of `O=C(NCCCc1[nH]nc(-c2ccc(F)cc2)c1-c1ccncc1)NCC1CC1`, the inhibition amounted to 36%.

Compound `C[C@H](NC(=O)c1ccccc1F)c1[nH]nc(-c2ccc(F)cc2)c1-c1ccncc1` showed an inhibition of 31%.

`CN(C)c1ccc(CNC(=O)NCCCc2[nH]nc(-c3ccc(F)cc3)c2-c2ccncc2)cc1` registered an inhibition of 15%.

As for `O=C(NCc1[nH]nc(-c2ccc(F)cc2)c1-c1ccncc1)c1c(F)cccc1C(F)(F)F`, the inhibition amounted to 65%.

`C[C@@H](NS(=O)(=O)c1ccccc1C#N)c1[nH]nc(-c2ccc(F)cc2)c1-c1ccncc1` came in with an inhibition of 81%.

As to `C[C@@H](NS(=O)(=O)[C@@]12CC[C@H](CC1=O)C2(C)C)c1[nH]nc(-c2ccc(F)cc2)c1-c1ccncc1`, the inhibition stood at 54%.

Take `C[C@H](NC(=O)N(C)C)c1[nH]nc(-c2ccc(F)cc2)c1-c1ccncc1`: the inhibition was 54%.

`C[C@H](NC(=O)c1ccc(C(F)(F)F)cc1F)c1[nH]nc(-c2ccc(F)cc2)c1-c1ccncc1`: the inhibition is 33%.

The compound `O=C(NCCc1ccccc1)NCc1[nH]nc(-c2ccc(F)cc2)c1-c1ccncc1` had an inhibition of 9%.

In turn, `Cc1ccc(S(=O)(=O)N[C@H](C)c2[nH]nc(-c3ccc(F)cc3)c2-c2ccncc2)cc1` gave an inhibition of 39%.

`CCc1ccc(S(=O)(=O)N[C@H](C)c2[nH]nc(-c3ccc(F)cc3)c2-c2ccncc2)cc1` yielded an inhibition of 92%.

In turn, `C[C@H](NS(=O)(=O)c1ccccc1C(F)(F)F)c1[nH]nc(-c2ccc(F)cc2)c1-c1ccncc1` came in with an inhibition of 55%.

`O=C(NCc1[nH]nc(-c2ccc(F)cc2)c1-c1ccncc1)c1ccc(Cl)cc1` gave an inhibition of 19%.

Consider `C[C@@H](NC(=O)c1ccc(F)cc1F)c1[nH]nc(-c2ccc(F)cc2)c1-c1ccncc1`, for which the inhibition is 77%.

Compound `CC(C)C(=O)N[C@H](C)c1[nH]nc(-c2ccc(F)cc2)c1-c1ccncc1` came in with an inhibition of 40%.

On to `O=C(NCc1[nH]nc(-c2ccc(F)cc2)c1-c1ccncc1)c1cc(F)cc(F)c1`, for which the inhibition amounted to 34%.

`O=C(NCc1[nH]nc(-c2ccc(F)cc2)c1-c1ccncc1)c1c(F)cccc1F` returned an inhibition of 48%.

For `C[C@@H](NC(=O)c1c(F)cccc1C(F)(F)F)c1[nH]nc(-c2ccc(F)cc2)c1-c1ccncc1`, the inhibition amounted to 86%.

The compound `C[C@H](NC(=O)c1cc(C(F)(F)F)ccc1F)c1[nH]nc(-c2ccc(F)cc2)c1-c1ccncc1` showed an inhibition of 32%.

As for `C[C@@H](NS(=O)(=O)Cc1ccccc1[N+](=O)[O-])c1[nH]nc(-c2ccc(F)cc2)c1-c1ccncc1`, the inhibition was determined as 91%.

Consider `COc1ccc(OC)c(S(=O)(=O)N[C@@H](C)c2[nH]nc(-c3ccc(F)cc3)c2-c2ccncc2)c1`, for which the inhibition is 40%.

`O=C(NCc1ccc(S(=O)(=O)NCc2[nH]nc(-c3ccc(F)cc3)c2-c2ccncc2)s1)c1ccccc1` came in with an inhibition of 68%.

In turn, `C[C@H](NC(=O)c1cccs1)c1[nH]nc(-c2ccc(F)cc2)c1-c1ccncc1` gave an inhibition of 21%.

The compound `C[C@H](NS(=O)(=O)c1cc(Cl)cc(Cl)c1)c1[nH]nc(-c2ccc(F)cc2)c1-c1ccncc1` returned an inhibition of 65%.

`C[C@H](NS(=O)(=O)c1ccc(Cl)s1)c1[nH]nc(-c2ccc(F)cc2)c1-c1ccncc1` showed an inhibition of 95%.

In turn, `O=S(=O)(NCc1[nH]nc(-c2ccc(F)cc2)c1-c1ccncc1)c1ccc(F)cc1Cl` returned an inhibition of 40%.

Consider `O=C(Cc1cccc2ccccc12)NCc1[nH]nc(-c2ccc(F)cc2)c1-c1ccncc1`, for which the inhibition came to 21%.

In the case of `C[C@@H](NS(=O)(=O)c1ccccc1Br)c1[nH]nc(-c2ccc(F)cc2)c1-c1ccncc1`, the inhibition was determined as 80%.

As to `C[C@H](NC(=O)c1cccc(F)c1)c1[nH]nc(-c2ccc(F)cc2)c1-c1ccncc1`, the inhibition stood at 21%.

Compound `N#Cc1cccc(S(=O)(=O)N2CCC(c3[nH]nc(-c4ccc(F)cc4)c3-c3ccncc3)CC2)c1` had an inhibition of 14%.

The compound `O=S(=O)(c1cccc(Cl)c1)N1CCC(c2[nH]nc(-c3ccc(F)cc3)c2-c2ccncc2)CC1` came in with an inhibition of 31%.

`O=S(=O)(c1ccc(C(F)(F)F)cc1)N1CCC(c2[nH]nc(-c3ccc(F)cc3)c2-c2ccncc2)CC1` yielded an inhibition of 31%.
